Assay results reported in publication PMC12203862, “BroadAMP-GPT: AI-Driven generation of broad-spectrum antimicrobial peptides for combating multidrug-resistant ESKAPE pathogens” (Gut Microbes, 2025).
Converted amounts (≈) assume the structure as drawn. Where two headings read alike, the source gives them in different places.

Columns and labels:
S. aureus ATCC 29213 = experiment: microbe, parasite or virus in culture; type: cell-based; details: Staphylococcus aureus, ATCC29213
E. faecalis ES01 = experiment: microbe, parasite or virus in culture; type: cell-based; details: Enterococcus faecalis
Protocol: (§1) Bacterial strains and growth conditions: All Gram-negative and Gram-positive bacterial strains (Supplementary Table S8) were cultured in Luria-Bertani (LB) or trypticase soy broth (TSB) agar plates, respectively, and incubated overnight at 37 °C unless specifically indicated. A single colony of the tested bacterial strains was inoculated into medium broth with shaking at 220 rpm for further experiments.
(§2) Minimal inhibitory concentrations: Antimicrobial susceptibility testing was performed by broth microdilution method for AMPs against Gram-positive and Gram-negative pathogens above mentioned, following the methods of document CLSI M100-ED34.[43] The MICs were defined as the lowest concentrations that inhibit visible growth of the tested bacteria. E. coli ATCC 25,922 and S. aureus ATCC 29,213 were served as quality controls.

E. faecalis J2 = experiment: microbe, parasite or virus in culture; type: cell-based; details: Enterococcus faecalis
Protocol: as §1, §2

E. faecalis JH2-2 = experiment: microbe, parasite or virus in culture; type: cell-based; details: Enterococcus faecalis, JH22
Protocol: as §1, §2

E. faecalis SF23-1 = experiment: microbe, parasite or virus in culture; type: cell-based; details: Enterococcus faecalis, SF231
Protocol: as §1, §2

E. faecium HFY01 = experiment: microbe, parasite or virus in culture; type: cell-based; details: Enterococcus faecium
Protocol: as §1, §2

E. faecium MC38 = experiment: microbe, parasite or virus in culture; type: cell-based; details: Enterococcus faecium
Protocol: as §1, §2

E. faecium QF31 = experiment: microbe, parasite or virus in culture; type: cell-based; details: Enterococcus faecium
Protocol: as §1, §2

S. agalactiae DL03 = experiment: microbe, parasite or virus in culture; type: cell-based; details: Streptococcus agalactiae
Protocol: as §1, §2

S. aureus M147-2 = experiment: microbe, parasite or virus in culture; type: cell-based; details: Staphylococcus aureus, M1472
Protocol: as §1, §2

S. aureus M92-1 = experiment: microbe, parasite or virus in culture; type: cell-based; details: Staphylococcus aureus, M921
Protocol: as §1, §2

S. aureus YZSA-15 = experiment: microbe, parasite or virus in culture; type: cell-based; details: Staphylococcus aureus, YZSA15
Protocol: as §1, §2

S. aureus YZSA-21 = experiment: microbe, parasite or virus in culture; type: cell-based; details: Staphylococcus aureus, YZSA21
Protocol: as §1, §2

S. aureus YZSA-24 = experiment: microbe, parasite or virus in culture; type: cell-based; details: Staphylococcus aureus, YZSA24
Protocol: as §1, §2

S. pyogenes DL02 = experiment: microbe, parasite or virus in culture; type: cell-based; details: Streptococcus pyogenes
Protocol: as §1, §2

S. suis SH0918 = experiment: microbe, parasite or virus in culture; type: cell-based; details: Streptococcus suis
Protocol: as §1, §2

S. suis P1/7 = experiment: microbe, parasite or virus in culture; details: Streptococcus suis, P1/7
Protocol: as §1
as §2, with “bacteria.” for “bacteria. E. coli ATCC 25,922 and S. aureus ATCC 29,213 were served as quality controls.”

A. baumannii 7979 = experiment: microbe, parasite or virus in culture; type: cell-based; details: Table 1, A. baumannii 7979, broth microdilution
Protocol: as §1, §2

A. baumannii AB11 = experiment: microbe, parasite or virus in culture; type: cell-based
Protocol: as §1, §2

E. coli ATCC 25922 = experiment: microbe, parasite or virus in culture; type: cell-based
Protocol: as §1, §2

K. pneumoniae 9-1 = experiment: microbe, parasite or virus in culture; type: cell-based; details: Table 1, K. pneumoniae 9-1, broth microdilution
Protocol: as §1, §2

P. aeruginosa PA14 = experiment: microbe, parasite or virus in culture; type: cell-based
Protocol: as §1, §2

P. aeruginosa PAO1 = experiment: microbe, parasite or virus in culture; type: cell-based; details: Table 1, P. aeruginosa PAO1, broth microdilution
Protocol: as §1, §2

S. enteritis S1 = experiment: organism not typed; type: cell-based; details: Table 1, S. enteritis S1, broth microdilution
Protocol: as §1, §2

[1] = Table 1, S. aureus ATCC 29213, broth microdilution, CLSI M100-ED34, read-out: MIC
[2] = Table 1, E. faecalis ES01, ermB, vanB, broth microdilution, read-out: MIC
[3] = Table 1, E. faecalis J2, ermB, optrA, broth microdilution, read-out: MIC
[4] = Table 1, E. faecalis JH2-2, broth microdilution, read-out: MIC
[5] = Table 1, E. faecalis SF23-1, ermB, tetL, cfr, broth microdilution, read-out: MIC
[6] = Table 1, E. faecium HFY01, broth microdilution, read-out: MIC
[7] = Table 1, E. faecium MC38, ermB, optrA, broth microdilution, read-out: MIC
[8] = Table 1, E. faecium QF31, ermB, cfr, broth microdilution, read-out: MIC
[9] = Table 1, S. agalactiae DL03, ermB, broth microdilution, read-out: MIC
[10] = Table 1, S. aureus M147-2, ermB, tetL, cfr, broth microdilution, read-out: MIC
[11] = Table 1, S. aureus M92-1, ermB, tetL, optrA, broth microdilution, read-out: MIC
[12] = Table 1, S. aureus YZSA-15, ermC, vanB, broth microdilution, read-out: MIC
[13] = Table 1, S. aureus YZSA-21, ermC, broth microdilution, read-out: MIC
[14] = Table 1, S. aureus YZSA-24, ermC, mecA, broth microdilution, read-out: MIC
[15] = Table 1, S. pyogenes DL02, ermB, broth microdilution, read-out: MIC
[16] = Table 1, S. suis SH0918, ermB, tetO, optrA, broth microdilution, read-out: MIC
[17] = Acinetobacter baumannii, read-out: MIC
[18] = Klebsiella pneumoniae, 91, read-out: MIC
[19] = Pseudomonas aeruginosa, read-out: MIC

Row | Compound | MIC (S. aureus ATCC 29213; [1]) | MIC (E. faecalis ES01; [2]) | MIC (E. faecalis J2; [3]) | MIC (E. faecalis JH2-2; [4]) | MIC (E. faecalis SF23-1; [5]) | MIC (E. faecium HFY01; [6]) | MIC (E. faecium MC38; [7]) | MIC (E. faecium QF31; [8]) | MIC (S. agalactiae DL03; [9]) | MIC (S. aureus M147-2; [10]) | MIC (S. aureus M92-1; [11]) | MIC (S. aureus YZSA-15; [12]) | MIC (S. aureus YZSA-21; [13]) | MIC (S. aureus YZSA-24; [14]) | MIC (S. pyogenes DL02; [15]) | MIC (S. suis SH0918; [16]) | MIC (S. suis P1/7) | MIC (A. baumannii 7979; [17]) | MIC (K. pneumoniae 9-1; [18]) | MIC (P. aeruginosa PAO1; [19]) | further results
1 | CC[C@H]1OC(=O)[C@H](C)[C@@H](O[C@H]2C[C@@](C)(OC)[C@@H](O)[C@H](C)O2)[C@H](C)[C@@H](O[C@@H]2O[C@H](C)C[C@H](N(C)C)[C@H]2O)[C@](C)(O)C[C@@H](C)C(=O)[C@H](C)[C@@H](O)[C@]1(C)O [ERY, Erythromycin] | 1 µg/mL (≈ 1.36 µM) | > 64 µg/mL | > 64 µg/mL | 0.25 µg/mL (≈ 0.341 µM) | > 64 µg/mL | 2 µg/mL (≈ 2.73 µM) | > 64 µg/mL | > 64 µg/mL | > 64 µg/mL | > 64 µg/mL | > 64 µg/mL | > 64 µg/mL | > 64 µg/mL | > 63 µg/mL | > 64 µg/mL | > 64 µg/mL | 0.125 µg/mL (≈ 0.17 µM) |  |  |  | 
2 | C[C@H]1COc2c(N3CCN(C)CC3)c(F)cc3c(=O)c(C(=O)O)cn1c23 [LVX, Levofloxacin] |  |  |  |  |  |  |  |  |  |  |  |  |  |  |  |  |  | > 64 µg/mL | > 64 µg/mL | 0.5 µg/mL (≈ 1.38 µM) | MIC (A. baumannii AB11; Acinetobacter baumannii, AB11): 0.125 µg/mL (≈ 0.346 µM); MIC (E. coli ATCC 25922; Escherichia coli, ATCC25922): 0.125 µg/mL (≈ 0.346 µM); MIC (P. aeruginosa PA14; Pseudomonas aeruginosa, PA14): 0.125 µg/mL (≈ 0.346 µM); MIC (S. enteritis S1; read-out: MIC): 0.5 µg/mL (≈ 1.38 µM)
3 | CC(=O)NC[C@H]1CN(c2ccc(N3CCOCC3)c(F)c2)C(=O)O1 [LZD, linezolid] | 1 µg/mL (≈ 2.96 µM) | 2 µg/mL (≈ 5.93 µM) | 8 µg/mL (≈ 23.7 µM) | 0.5 µg/mL (≈ 1.48 µM) | 16 µg/mL (≈ 47.4 µM) | 2 µg/mL (≈ 5.93 µM) | 2 µg/mL (≈ 5.93 µM) | 2 µg/mL (≈ 5.93 µM) | 1 µg/mL (≈ 2.96 µM) | 8 µg/mL (≈ 23.7 µM) | 8 µg/mL (≈ 23.7 µM) | 0.5 µg/mL (≈ 1.48 µM) | 1 µg/mL (≈ 2.96 µM) | 0.5 µg/mL (≈ 1.48 µM) | < 0.06 µg/mL | 8 µg/mL (≈ 23.7 µM) | 0.125 µg/mL (≈ 0.371 µM) |  |  |  | 
4 | C[C@@H](O)[C@H]1C(=O)N2C(C(=O)O)=C(S[C@@H]3CN[C@H](C(=O)N(C)C)C3)[C@H](C)[C@H]12 [MEM, Meropenem] |  |  |  |  |  |  |  |  |  |  |  |  |  |  |  |  |  | > 64 µg/mL | 4 µg/mL (≈ 10.4 µM) | 0.5 µg/mL (≈ 1.3 µM) | MIC (A. baumannii AB11; Acinetobacter baumannii, Table 1, A. baumannii AB11, broth microdilution, read-out: MIC): < 0.06 µg/mL; MIC (E. coli ATCC 25922; Escherichia coli, ATCC25922, Table 1, E. coli ATCC 25922, broth microdilution, read-out: MIC): 0.25 µg/mL (≈ 0.652 µM); MIC (P. aeruginosa PA14; Pseudomonas aeruginosa, Table 1, P. aeruginosa PA14, broth microdilution, read-out: MIC): 0.5 µg/mL (≈ 1.3 µM); MIC (S. enteritis S1; read-out: MIC): 0.25 µg/mL (≈ 0.652 µM)
5 | CN[C@H](CC(C)C)C(=O)N[C@H]1C(=O)N[C@@H](CC(N)=O)C(=O)N[C@H]2C(=O)N[C@H]3C(=O)N[C@H](C(=O)N[C@H](C(=O)O)c4cc(O)cc(O)c4-c4cc3ccc4O)[C@H](O)c3ccc(c(Cl)c3)Oc3cc2cc(c3O[C@@H]2O[C@H](CO)[C@@H](O)[C@H](O)[C@H]2O[C@H]2C[C@](C)(N)[C@H](O)[C@H](C)O2)Oc2ccc(cc2Cl)[C@H]1O [VAN, vancomycin] |  |  |  |  |  |  |  |  |  |  |  |  |  |  |  |  | < 0.06 µg/mL |  |  |  | MIC (S. aureus ATCC 29213): 1 µg/mL (≈ 0.69 µM); MIC (E. faecalis ES01; ES01): 16 µg/mL (≈ 11 µM); MIC (E. faecalis J2; J2): 2 µg/mL (≈ 1.38 µM); MIC (E. faecalis JH2-2): 2 µg/mL (≈ 1.38 µM); MIC (E. faecalis SF23-1): 2 µg/mL (≈ 1.38 µM); MIC (E. faecium HFY01; HFY01): 0.5 µg/mL (≈ 0.345 µM); MIC (E. faecium MC38; MC38): 2 µg/mL (≈ 1.38 µM); MIC (E. faecium QF31; QF31): 2 µg/mL (≈ 1.38 µM); MIC (S. agalactiae DL03; DL03): 0.125 µg/mL (≈ 0.0863 µM); MIC (S. aureus M147-2): 0.5 µg/mL (≈ 0.345 µM); MIC (S. aureus M92-1): 1 µg/mL (≈ 0.69 µM); MIC (S. aureus YZSA-15): 16 µg/mL (≈ 11 µM); MIC (S. aureus YZSA-21): 1 µg/mL (≈ 0.69 µM); MIC (S. aureus YZSA-24): < 0.06 µg/mL; MIC (S. pyogenes DL02; DL02): < 0.06 µg/mL; MIC (S. suis SH0918; SH0918): < 0.06 µg/mL
6 | colistin [CST] |  |  |  |  |  |  |  |  |  |  |  |  |  |  |  |  |  |  |  |  | MIC (A. baumannii 7979): <0.06 µg/mL; MIC (A. baumannii AB11; Table 1, A. baumannii AB11, broth microdilution): 8 µg/mL; MIC (E. coli ATCC 25922; Table 1, E. coli ATCC 25922, broth microdilution): 1 µg/mL; MIC (K. pneumoniae 9-1): 1 µg/mL; MIC (P. aeruginosa PA14; Table 1, P. aeruginosa PA14, broth microdilution): <0.06 µg/mL; MIC (P. aeruginosa PAO1): 0.125 µg/mL; MIC (S. enteritis S1): 0.5 µg/mL
